Reference: PubChem BioAssay AID246 (DTP/NCI, 2004)
Values joined by “and” are separate entries in the source; they are usually repeats but may differ in a detail not shown here. Identical values can stand only once. Inconclusive results and toxic doses are left out. How the source made its calls: active means survival T/C of 150% or more; inactive means T/C below 125% in these data.

Tested on: BDF1 mice, P1081 chloroleukemia ip, survival T/C
Experiment: NCI In Vivo Anticancer Drug Screen. Data for tumor model P1081 Chloroleukemia (intraperitoneal) in B6D2F1 (BDF1) mice
Conditions: endpoint: mean survival time, higher = longer survival
Method: The antitumor activity of compounds was measured in mice bearing transplantable tumors. Survival or tumor size were measured and the results are expressed as the measurement made in the treated group (T) divided by the measurement made in the vehicle treated control group (C). The tumor model used in this assay is P1081 Chloroleukemia (intraperitoneal) in B6D2F1 (BDF1) mice

[1] = dose: 6.25 mg/kg/injection, schedule: Q01DX Z (ip), vehicle: carboxymethylcellulose (CMC)
[2] = dose: 50.0 mg/kg/injection, schedule: Q01DX Z (ip), vehicle: carboxymethylcellulose (CMC)
[3] = dose: 37.5 mg/kg/injection, schedule: Q01DX010 (ip), vehicle: saline
[4] = dose: 150.0 mg/kg/injection, schedule: Q01DX010 (ip), vehicle: saline
[5] = dose: 300.0 mg/kg/injection, schedule: Q01DX010 (ip), vehicle: saline
[6] = dose: 200.0 mg/kg/injection, schedule: Q01DX Z (ip), vehicle: other

Measured: T/C

Clc1ccc(C(c2ccccc2Cl)C(Cl)Cl)cc1 (stereo not drawn)
inactive: dose: 0.8 mg/kg/injection, schedule: Q01DX Z (sc), vehicle: steriod suspending solution 110 % of control | dose: 3.1 mg/kg/injection, schedule: Q01DX Z (sc), vehicle: steriod suspending solution 117 % of control | dose: 6.25 mg/kg/injection, schedule: Q01DX Z (sc), vehicle: steriod suspending solution 101 % of control | dose: 12.5 mg/kg/injection, schedule: Q01DX Z (sc), vehicle: steriod suspending solution 100 % of control | dose: 25.0 mg/kg/injection, schedule: Q01DX Z (sc), vehicle: steriod suspending solution 93 % of control and 95 % of control | dose: 50.0 mg/kg/injection, schedule: Q01DX Z (sc), vehicle: steriod suspending solution 93 % of control | dose: 100.0 mg/kg/injection, schedule: Q01DX Z (sc), vehicle: steriod suspending solution 87 % of control

O=c1[nH]c(=O)n(C2CC(O)C(CO)O2)cc1F (stereo not drawn)
active: dose: 40.0 mg/kg/injection, schedule: Q01DX010 (ip), vehicle: saline 155 % of control and 250 % of control | [2] 172 % of control
inactive: dose: 5.0 mg/kg/injection, schedule: Q01DX010 (ip), vehicle: saline 110 % of control | [1] 124 % of control | dose: 10.0 mg/kg/injection, schedule: Q01DX010 (ip), vehicle: saline 120 % of control and 104 % of control | dose: 12.5 mg/kg/injection, schedule: Q01DX Z (ip), vehicle: carboxymethylcellulose (CMC) 122 % of control | dose: 20.0 mg/kg/injection, schedule: Q01DX010 (ip), vehicle: saline 110 % of control

CCC(=O)O[C@H]1CC[C@H]2[C@@H]3CCC4=CC(=O)CC[C@]4(C)[C@H]3CC[C@]12C
inactive: dose: 31.25 mg/kg/injection, schedule: Q01DX Z (sc), vehicle: steriod suspending solution 92 % of control | dose: 62.5 mg/kg/injection, schedule: Q01DX Z (sc), vehicle: steriod suspending solution 111 % of control | dose: 125.0 mg/kg/injection, schedule: Q01DX Z (sc), vehicle: steriod suspending solution 107 % of control and 116 % of control | dose: 250.0 mg/kg/injection, schedule: Q01DX Z (sc), vehicle: steriod suspending solution 107 % of control | dose: 500.0 mg/kg/injection, schedule: Q01DX Z (sc), vehicle: steriod suspending solution 95 % of control | dose: 2000.0 mg/kg/injection, schedule: Q01DX Z (sc), vehicle: steriod suspending solution 122 % of control

CN(Cc1cnc2nc(N)nc(N)c2n1)c1ccc(C(=O)N[C@@H](CCC(=O)O)C(=O)O)cc1
active: dose: 0.03 mg/kg/injection, schedule: Q01DX Z (ip), vehicle: other 160 % of control | dose: 0.24 mg/kg/injection, schedule: Q01DX Z (ip), vehicle: other 189 % of control | dose: 0.47 mg/kg/injection, schedule: Q01DX Z (ip), vehicle: other 226 % of control | dose: 0.75 mg/kg/injection, schedule: Q01DX010 (ip), vehicle: other 150 % of control and 160 % of control and 170 % of control | dose: 1.5 mg/kg/injection, schedule: Q01DX010 (ip), vehicle: other 187 % of control and 207 % of control and 210 % of control
inactive: dose: 0.06 mg/kg/injection, schedule: Q01DX Z (ip), vehicle: other 115 % of control | dose: 0.07 mg/kg/injection, schedule: Q01DX Z (ip), vehicle: other 113 % of control | dose: 0.15 mg/kg/injection, schedule: Q01DX Z (ip), vehicle: other 117 % of control and 122 % of control | dose: 0.19 mg/kg/injection, schedule: Q01DX010 (ip), vehicle: other 110 % of control and 120 % of control and 121 % of control | dose: 0.31 mg/kg/injection, schedule: Q01DX Z (ip), vehicle: other 111 % of control and 117 % of control | dose: 0.38 mg/kg/injection, schedule: Q01DX010 (ip), vehicle: other 123 % of control | dose: 0.62 mg/kg/injection, schedule: Q01DX Z (ip), vehicle: other 110 % of control and 113 % of control | dose: 0.94 mg/kg/injection, schedule: Q01DX Z (ip), vehicle: other 92 % of control | dose: 1.88 mg/kg/injection, schedule: Q01DX Z (ip), vehicle: other 98 % of control | dose: 3.0 mg/kg/injection, schedule: Q01DX010 (ip), vehicle: other 106 % of control and 108 % of control and 105 % of control

CO[C@@H]1[C@@H](OC2OC(C)C(OC3CC(C)(O)C(OC(=O)CC(C)C)C(C)O3)C(N(C)C)C2O)[C@@H](CC=O)C[C@@H](C)C(=O)/C=C/C2O[C@H]2C[C@@H](C)OC(=O)C[C@H]1OC(C)=O (stereo partly drawn)
inactive: [3] 111 % of control and 120 % of control | [4] 111 % of control and 115 % of control | [5] 122 % of control

N#CCSc1ncnc2nc[nH]c12
inactive: [1] 119 % of control | dose: 15.0 mg/kg/injection, schedule: Q01DX010 (ip), vehicle: saline 110 % of control | dose: 30.0 mg/kg/injection, schedule: Q01DX010 (ip), vehicle: saline 105 % of control and 95 % of control | [2] 101 % of control | dose: 60.0 mg/kg/injection, schedule: Q01DX010 (ip), vehicle: saline 110 % of control

O=C(Nc1ccc(C2=NCCCN2)cc1)c1ccc(C(=O)Nc2ccc(C3=NCCCN3)cc2)cc1
active: dose: 4.0 mg/kg/injection, schedule: Q01DX Z (ip), vehicle: water 162 % of control
inactive: dose: 0.5 mg/kg/injection, schedule: Q01DX Z (ip), vehicle: water 109 % of control and 101 % of control | dose: 1.0 mg/kg/injection, schedule: Q01DX Z (ip), vehicle: water 110 % of control and 118 % of control

CCOC(N)=O
inactive: dose: 125.0 mg/kg/injection, schedule: Q01DX010 (ip), vehicle: saline 110 % of control and 100 % of control | dose: 125.0 mg/kg/injection, schedule: Q01DX Z (ip), vehicle: saline 95 % of control and 102 % of control | dose: 250.0 mg/kg/injection, schedule: Q01DX010 (ip), vehicle: saline 90 % of control and 100 % of control | dose: 250.0 mg/kg/injection, schedule: Q01DX Z (ip), vehicle: saline 100 % of control and 101 % of control | dose: 500.0 mg/kg/injection, schedule: Q01DX010 (ip), vehicle: saline 90 % of control and 100 % of control | dose: 500.0 mg/kg/injection, schedule: Q01DX Z (ip), vehicle: saline 92 % of control

O=C(C[N+]12CN3CN(CN(C3)C1)C2)c1ccc(Cl)cc1
inactive: [3] 113 % of control and 98 % of control | dose: 75.0 mg/kg/injection, schedule: Q01DX010 (ip), vehicle: saline 107 % of control and 112 % of control | [4] 112 % of control and 118 % of control | [5] 110 % of control and 114 % of control

S=c1nc[nH]c2nc[nH]c12
inactive: dose: 1.56 mg/kg/injection, schedule: Q01DX Z (ip), vehicle: other 108 % of control | dose: 3.12 mg/kg/injection, schedule: Q01DX Z (ip), vehicle: other 120 % of control | dose: 5.0 mg/kg/injection, schedule: Q01DX010 (ip), vehicle: alkali diluted with saline 110 % of control and 97 % of control | dose: 10.0 mg/kg/injection, schedule: Q01DX010 (ip), vehicle: alkali diluted with saline 105 % of control and 92 % of control | dose: 20.0 mg/kg/injection, schedule: Q01DX010 (ip), vehicle: alkali diluted with saline 106 % of control (2×) and 112 % of control | dose: 40.0 mg/kg/injection, schedule: Q01DX010 (ip), vehicle: alkali diluted with saline 118 % of control and 90 % of control and 103 % of control | dose: 80.0 mg/kg/injection, schedule: Q01DX010 (ip), vehicle: alkali diluted with saline 108 % of control and 116 % of control | [6] 91 % of control and 100 % of control

Cc1n[nH]c(=O)[nH]c1=O
inactive: [6] 98 % of control | dose: 400.0 mg/kg/injection, schedule: Q01DX Z (ip), vehicle: other 105 % of control | dose: 800.0 mg/kg/injection, schedule: Q01DX Z (ip), vehicle: other 106 % of control and 96 % of control

CCCCCCCCCCCCNCCCCCCCCCCCC
inactive: dose: 0.24 mg/kg/injection, schedule: Q01DX Z (ip), vehicle: saline 91 % of control | dose: 0.48 mg/kg/injection, schedule: Q01DX Z (ip), vehicle: carboxymethylcellulose (CMC) 112 % of control | dose: 0.48 mg/kg/injection, schedule: Q01DX Z (ip), vehicle: saline 90 % of control | dose: 1.9 mg/kg/injection, schedule: Q01DX Z (ip), vehicle: carboxymethylcellulose (CMC) 101 % of control | dose: 1.9 mg/kg/injection, schedule: Q01DX Z (ip), vehicle: saline 94 % of control | dose: 3.8 mg/kg/injection, schedule: Q01DX Z (ip), vehicle: carboxymethylcellulose (CMC) 103 % of control

CSCS(=O)C[C@H](CO)NC(=O)/C=C/c1c(C)[nH]c(=O)[nH]c1=O (stereo partly drawn)
inactive: dose: 0.06 mg/kg/injection, schedule: Q01DX Z (ip), vehicle: saline 92 % of control | dose: 0.12 mg/kg/injection, schedule: Q01DX Z (ip), vehicle: saline 93 % of control | dose: 0.25 mg/kg/injection, schedule: Q01DX Z (ip), vehicle: saline 107 % of control and 97 % of control | dose: 0.5 mg/kg/injection, schedule: Q01DX Z (ip), vehicle: saline 92 % of control and 102 % of control | dose: 1.0 mg/kg/injection, schedule: Q01DX Z (ip), vehicle: saline 90 % of control
